As usually defined, the viability is the share of living cells, or the viability signal relative to a control.

Series [1] deals with human CB CD34^+ HSCs. In words: Flow cytometry viability and stem cell phenotype of electroporated cord blood CD34+ cells.
Protocol: (§1) For all samples, the cells were collected from the cartridge and placed at 37° C. for 20 minutes (recovery period). […] For the cold shocked samples, the cells were transferred to the 37° C. incubator after the 2-hour incubation period at 30° C.
(§2) For all samples, the cells were collected from the cartridge and placed at 37° C. for 20 minutes (recovery period). For the CB CD34^+ cells that were contacted with 10 μg D10A nickase RNP (per million cells), one sample was transferred to pre-warmed cytokine supplemented Stemspan-SFEM™ media and placed at 30° C. for 2 hours (cold shock recovery) or placed directly into the same media at 37° C. For the cold shocked samples, the cells were transferred to the 37° C. incubator after the 2-hour incubation period at 30° C.
(§3) CB CD34^+ cells were pre-treated with each of these stem cell viability enhancers (Table 19) for 18 hours prior to electroporation with D10A Cas9 RNP, HBB-8 and HBB-15 modified gRNAs, and 5′ and 3′ phosphorothioate-modified ssODN donor template. After electroporation, cells were replated into HSC medium containing these stem cell viability enhancers and cultured for an additional 3 days.
The test system of a further series is HBB locus. As to the kind of experiment: Gene editing at the HBB locus in cord blood CD34+ HSCs (T7E1, DNA sequencing). The note with it: CB CD34+, enhancer 18 hours before and 3 days after electroporation with D10A Cas9 RNP, HBB-8/HBB-15, Phx ssODN, UM171 35 nM, UM171/SR-1 35/40 nM, rapamycin 5 nM, OxPAPC 30 μg/mL, bafilomycin A1 1 μM, MG132 0.5 μM. It is filed as cell-based, human.

Series [2] has as its system human mobilized peripheral blood CD34^+ HSCs. As to the kind of experiment: Hematopoietic colony forming cell (CFC) assay in Methocult. The series is classed as cell-based. The conditions noted are these: wild-type Cas9 and CCR5-U43 gRNA plasmid DNA; 40 nM UM171; two weeks. An excerpt: […]; 345(6203):1509-1512). […] […].
To evaluate maintenance of HSC potency and differentiation potential, two weeks after plating CD34^+ HSCs in CFC assays, hematopoietic activity was quantified based on scoring the HSC progeny by enumerating the total number of hematopoietic colony forming units (CFU) and the frequencies of specific blood cell phenotypes, including: mixed myeloid/erythroid (Granulocyte-erythroid-monocyte macrophage, CFU-GEMM), myeloid (CFU-macrophage (M), granulocyte-macrophage (CFU-GM)) and erythroid (CFU-E) colonies. […].
To evaluate maintenance of HSC potency and differentiation potential, two weeks after plating CD34^+ HSCs in CFC assays, hematopoietic activity was quantified based on scoring the HSC progeny by enumerating the total number of hematopoietic colony forming units (CFU) and the frequencies of specific blood cell phenotypes, including: mixed myeloid/erythroid (Granulocyte-erythroid-monocyte macrophage, CFU-GEMM), myeloid (CFU-macrophage (M), granulocyte-macrophage (CFU-GM)) and erythroid (CFU-E) colonies. […]. […] After Nucleofection™, cells were replated into Stemspan-SFEM supplemented with SCF, TPO, FL and UM171. After overnight incubation, HSCs were replated in Stemspan-SFEM™ plus cytokines alone without UM171.
To evaluate maintenance of HSC potency and differentiation potential, two weeks after plating CD34^+ HSCs in CFC assays, hematopoietic activity was quantified based on scoring the HSC progeny by enumerating the total number of hematopoietic colony forming units (CFU) and the frequencies of specific blood cell phenotypes, including: mixed myeloid/erythroid (Granulocyte-erythroid-monocyte macrophage, CFU-GEMM), myeloid (CFU-macrophage (M), granulocyte-macrophage (CFU-GM)) and erythroid (CFU-E) colonies. CD34^+ HSCs that were Nucleofected™ CD34^+ HSCs maintained CFC potential compared to un-Nucleofected™ HSCs (Table 14).

The test system is the same in series [3]. The note with it: Nucleofection with wild type Cas9 and CCR5-U43 gRNA plasmid DNA; short-term 40 nM UM171.
The test system of series [4] is human CB CD34^+ HSCs.
Protocol: as §1, §2, §3
[5] abbreviates: Homo sapiens, read-out: % Viability of CD34^+ stem cells.

Read-outs that look alike come from different tables or passages of the source. Peptide text beside a SMILES is read from it. * marks the point of attachment. Cbz = O=C(OCc1ccccc1)*

Description for HBB locus: Human CD34^+ HSCs cells were isolated from freshly obtained human umbilical cord blood by ficoll gradient density centrifugation followed by MACS® (antibody conjugated immunomagnetic bead sorting) with mouse anti-human CD34^+ immunomagnetic beads using the human CD34 cell enrichment kit and LS magnetic columns from Miltenyi Biotech. […] In the afternoon of day 3, 2.5 million CD34^+ cells per sample were suspended in electroporation buffer.
In vitro transcribed capped and tailed guide gRNAs HBB-8 and HBB-15 were added at a 2:1 molar ratio (total gRNA:Cas9 protein) to 12.5 μg D10A nickase ribonucleoprotein (RNP) (5 μg RNP per million cells) to each of two samples each containing 2.5 million CB CD34^+ cells. A third CB CD34^+ cell aliquot was mixed with 25 μg D10A nickase RNP and HBB gRNAs (total gRNA:D10A ratio at 2:1).
For all samples, the cells were collected from the cartridge and placed at 37° C. for 20 minutes (recovery period). For the CB CD34^+ HSCs that were contacted with 12.5 μg D10A nickase RNP, one sample was transferred to pre-warmed cytokine supplemented Stemspan-SFEM™ media and placed at 30° C. for 2 hours (cold shock samples) or placed directly into the same media at 37° C. For the cold shocked samples, the cells were transferred to the 37° C. incubator after the 2-hour incubation period at 30° C. […] Genomic DNA was extracted from the HSCs at 48 and 72 hours after electroporation and HBB locus-specific PCR reactions were performed. The purified PCR products were analyzed for insertions/deletions (indels) in T7E1 assays and by DNA sequencing of individual clones (PCR product was transformed and subcloned into TOPO-vector, individual colonies picked, and plasmid DNA containing individual PCR products were sequenced).
Gene editing at the HBB locus was then evaluated at 72 hours after electroporation of D10A nickase RNP co-delivered with 2 gRNAs (HBB-8 and HBB-15). Briefly, gDNA was isolated from electroporated CD34^+ cells at 72 hours after electroporation, and PCR amplification of a ˜607 bp fragment of the HBB locus (which captures both of the individual genomic locations that were targeted by gRNAs HBB-8 and HBB-15) was performed. After cleanup of the HBB PCR product with AMPURE beads, insertions/deletions (indels) at the targeted genomic location were evaluated by T7E1 assay and by DNA sequencing.
Human CD34^+ HSCs cells were isolated from freshly obtained human umbilical cord blood by ficoll gradient density centrifugation followed by MACS sorting with mouse anti-human CD34^+ immunomagnetic beads. […] In the afternoon of day 3, 2.2 million CD34^+ cells per sample were suspended in electroporation buffer.
In vitro transcribed capped and tailed guide gRNAs HBB-8 and HBB-15 were added at a 2:1 molar ratio (total gRNA:Cas9 protein) to 10 μg RNP per million cells.
For all samples, the cells were collected from the cartridge and placed at 37° C. for 20 minutes (recovery period).

Regarding `CC(C)C[C@@H](C=O)NC(=O)[C@H](CC(C)C)NC(=O)[C@H](CC(C)C)NC(=O)OCc1ccccc1` [MG132, benzyl (S)-4-methyl-1-((S)-4-methyl-1-((S)-4-methyl-1-oxopentan-2-ylamino)-1-oxopentan-2-ylamino)-1-oxopentan-2-ylcarbamate, reference compound] (Cbz-Leu-Leu-Leu-aldehyde), the viability at 0.5 µM with human CB CD34^+ HSCs [1] (setting [5]) was determined as 19%. Also, in the series on HBB locus, the “% HDR” value stood at 0%, the “% NHEJ” value stood at 0% and the “% Total Gene Editing” value is 0%.
Regarding `CO[C@H]1C[C@@H]2CC[C@@H](C)[C@@](O)(O2)C(=O)C(=O)N2CCCC[C@H]2C(=O)O[C@H]([C@H](C)C[C@@H]2CC[C@@H](O)[C@H](OC)C2)CC(=O)[C@H](C)/C=C(\C)[C@@H](O)[C@@H](OC)C(=O)[C@H](C)C[C@H](C)/C=C/C=C/C=C/1C` [Rapamycin (sirolimus), Rapamycin, reference compound], the viability at 0.005 µM in the series on human CB CD34^+ HSCs [1] (setting [5]) is 52%. Moreover, in the series on HBB locus, the “% HDR” value came to 7%, the “% NHEJ” value was 46% and the “% Total Gene Editing” value was found to be 53%.
On to “oxidized 1-palmitoyl-2-arachidonyl-sn-glycero-3-phosphorylcholine [OxPAPC, reference compound]”, for which, in the series with human CB CD34^+ HSCs [1] (CB CD34+, OxPAPC 30 μg/mL pre-treatment 18 hours), the “improvement in viability versus electroporated cells without pre-treatment” value is listed as 20%. In addition, in the series with human CB CD34^+ HSCs [1] (CB CD34+, enhancer 18 hours before and 3 days after electroporation with D10A Cas9 RNP, HBB-8/HBB-15, Phx ssODN, UM171 35 nM, UM171/SR-1 35/40 nM, rapamycin 5 nM, OxPAPC 30 μg/mL, bafilomycin A1 1 μM, MG132 0.5 μM), the “% Viability of CD34^+ stem cells” value was found to be 64%. Also, in the series with HBB locus, the “% HDR” value is on record as 7%, the “% NHEJ” value came to 71% and the “% Total Gene Editing” value amounted to 78%.
Regarding `Cn1nnc(-c2ccc3c(c2)[nH]c2nc(Cc4ccccc4)nc(N[C@H]4CC[C@H](N)CC4)c23)n1` [UM171, (1r,4r)-N1-(2-benzyl-7-(2-methyl-2H-tetrazol-5-yl)-9H-pyrimido[4,5-b]indol-4-yl)cyclohexane-1,4-diamine], in the series with HBB locus, the “% HDR” value was 0%, the “% NHEJ” value is recorded as 79% and the “% Total Gene Editing” value turned out to be 79%. In series [2], the “Number of colony forming units, E (erythroid)” value is 92 colony forming units per 1500 CD34^+ HSCs plated; the “Number of colony forming units, G” value is reported as 40 colony forming units per 1500 CD34^+ HSCs plated; the “Number of colony forming units, GEMM” value was 20 colony forming units per 1500 CD34^+ HSCs plated; the “Number of colony forming units, GM” value was 32 colony forming units per 1500 CD34^+ HSCs plated. Besides, in series [2], the “Number of colony forming units, M” value is recorded as 64 colony forming units per 1500 CD34^+ HSCs plated and the “Number of colony forming units, Total” value is 228 colony forming units per 1500 CD34^+ HSCs plated. Besides, the “Fold-change in the number of live CD34^+ HSCs (96 hours)” value in series [3] is reported as 1.5.
On to `CO/C1=C\C(C)=C\[C@@H](C)[C@@H](O)[C@@H](C)C/C(C)=C/C=C/[C@H](OC)[C@@H]([C@@H](C)[C@@H](O)[C@H](C)[C@@]2(O)C[C@@H](O)[C@H](C)[C@@H](C(C)C)O2)OC1=O` [Bafilomycin A1, reference compound], for which, in the series with HBB locus, the “% HDR” value turned out to be 0%, the “% NHEJ” value amounted to 18% and the “% Total Gene Editing” value came to 18%. Besides, the “% Viability of CD34^+ stem cells” value in the series with human CB CD34^+ HSCs [4] is 23%.

Source of the values: US11390884B2, “Optimized CRISPR/cas9 systems and methods for gene editing in stem cells” (Editas Medicine, Inc., priority 2015, dated 2022).
